From patent US20190151283A1, “NON-STEROIDAL SELECTIVE GLUCOCORTICOID RECEPTOR AGONISTIC MODULATORS (SEGRAMs) AND USES THEREOF” (ASSOCIATION POUR LA RECHERCHE À L'IGBMC (ARI), priority 2017, published 2019) come the findings set out here.

Common to all, as to type: in vivo, mouse
One series has as its system mice. Kind of series: House dust mite (HDM)-induced asthma-like allergic lung inflammation. The settings on record: for total number of BAL cells, eosinophils and lymphocytes: 0.5 mg/kg on D29-D31, BAL on D32, vs control group; for peribronchiolar and perivascular inflammatory cell infiltration: histology of lung paraffin sections. The protocol: Glucocorticoids have been (Pearlman et al., 1997. Ann Allergy Asthma Immunol. 78(4):356-62), and are still, widely used in asthma therapy. In order to investigate the possible CpdX anti-inflammatory activity in vivo, mice were sensitized and challenged with either ovalbumin (OVA) or house dust mite (HDM) to induce an asthma-like allergic lung inflammation.
Mice were intranasally sensitized with 1 μg HDM from DO to D4, and further intranasally sensitized with 10 μg HDM on D14 and D21. Mice were then subdivided into eight groups, and on D29, D30 and D31, each mouse was again intranasally challenged with 1 μg HDM. The first seven groups received respectively 0.5 mg/kg of body weight of Dex, CpdX, CpdX(eA), CpdX(eB), CpdX-D3, CpdX-D3(eA) or CpdX-D3(eB), while the eighth group served as a control.
On D32, the airway responsiveness was invasively determined using a computer-controlled small animal ventilator (FlexVent® system, SCIREQ Technologies). Mice were anesthetized with xylazine (15 mg/kg, i.p.), followed 15 minutes later by an i.p. injection of pentobarbital sodium (54 mg/kg). An 18-gauge metal needle was then inserted into the trachea, each mouse was connected to the FlexVent® ventilator and quasi-sinusoidally ventilated with a tidal volume of 10 mL/kg at a frequency of 150 breaths/minute and a positive end-expiratory pressure of 2 cm H2O, in order to achieve a mean lung volume close to spontaneous breathing. After baseline measurement, mice were challenged for 10 seconds with a saline aerosol and, at 4.5-minute intervals, with 50 mg/mL methacholine. Airway resistance and elastance were expressed as cmH20·s/mL and cmH2O/mL respectively.
The lung allergic inflammation was assessed by examination of the bronchoalveolar lavage (BAL) fluid from each of these HDM-challenged mice. The total BAL cells, eosinophils, neutrophils, macrophages and lymphocytes were counted. RNA transcripts were extracted from lung samples. RNA transcripts of IL-1β, IL-6, IL-4, IL-5, IL-13, Eotaxin, CCL4, IL-10 and TNFα were analyzed by q-RT-PCR. Lung tissues were harvested and histological (with H&E staining) and immunohistochemical analyses were also carried out (with eosinophil-specific and neutrophil-specific antibodies).

The subject of a further series is Male mice (DBA-1 strain). Kind of series: Collagen-induced arthritis (CIA). The settings on record: for RNA transcripts of the pro-inflammatory genes expressed in the hind paws (IL-1β, IL-6, IL-17a, IL-17f, TNFα): q-RT-PCR, T10, 'but not' = not repressed. The protocol: Mice were treated with collagen to induce a Th17 rheumatoid arthritis-like inflammation as described by Inglis et al. (2007. Arthritis Res Ther. 9(5):R113) and Geboes et al. (2009. Arthritis Rheum. 60(2):390-5).
Male mice (DBA-1 strain) were subcutaneously-injected with 100 μg collagen per mouse on D0. The hind paw thickness at the ankle level was regularly measured with a caliper. When the ankle thickness had reached around 4 mm (T0, i.e., 30 to 50 days after the collagen injection on D0), mice were daily intraperitoneally-injected for 10 days (T0 to T10) with either vehicle (NaCl 0.9%), Dex, CpdX, CpdX(eA), CpdX(eB), CpdX-D3, CpdX-D3(eA) or CpdX-D3(eB) (1 mg/kg body weight diluted in NaCl 0.9%), and the hind paw thickness at the ankle level was daily measured with a caliper. Pictures of the hind paws were taken at days T0 and T10 (before and after the treatment with either Vehicle, Dex, CpdX, CpdX(eA), CpdX(eB), CpdX-D3, CpdX-D3(eA) or CpdX-D3(eB)), in order to assess the course of swelling.
RNA transcripts were extracted from whole hind paws of collagen-untreated and collagen-treated mice at T0 and T10. IL-1β, IL-6, IL-17a, IL-17f and TNFα transcripts were analyzed by q-RT-PCR.

A further series has as its system Balb/C mice. Kind of series: Ovalbumin (OVA)-induced allergic conjunctivitis. The settings on record: 0.1% instillation D22 to D24, 20 minutes after the last OVA challenge. The protocol:
To investigate the anti-inflammatory effect of CpdX or CpdX-D3 on an allergic conjunctivitis, Balb/C mice were intraperitoneally sensitized with 50 μg OVA with alum on both days D1 and D8, and then challenged from D15 to D21 with 250 μg OVA in 5 μL of sterilized vehicle (0.9% NaCl), which were directly instilled onto the conjunctival sac. From D22 to D24, mice were divided into several groups, and received instillations with either OVA alone, OVA together with 0.1% of either Dex, CpdX, CpdX(eA), CpdX(eB), CpdX-D3, CpdX-D3(eA) or CpdX-D3(eB).
The clinical appearance of mouse eyes was evaluated 20 minutes after the last instillation on D24. Clinical signs (conjunctival hyperemia, lid edema and tearing) were scored to evaluate the occurrence and severity of conjunctivitis as described by Gimenes et al. (2015. Experimental Eye Research 134:24-32). Parameters were graded on a scale ranging from 0 to 3, (0=absence, 1=mild, 2=moderate, and 3=severe symptoms), each animal receiving a total clinical score ranging from 0 to 9. The data were expressed as mean±SEM with at least four mice per treatment.

The test system of series [1] is B6 male mice. Put plainly: Corticosterone synthesis and adrenal gland after three-month treatment. To be noted: for plasmatic corticosterone level: at 10 a.m., compared to control mice (Vehicle); for cortex layers, most notably the fasciculata zone, of the adrenal glands / glomerulosa zone of the adrenal cortex / transcripts of Cyp11a, Cyp11b1 and HSD3β genes in adrenal glands: three months; for cortex layers, most notably the fasciculata zone, of the adrenal glands / glomerulosa zone of the adrenal cortex: histology; for glomerulosa zone of the adrenal cortex: 'but not' = not decreased; for transcripts of Cyp11a, Cyp11b1 and HSD3β genes in adrenal glands: q-RT-PCR. The protocol:
B6 male mice (8-week-old) were daily subjected for three months to either a subcutaneous injection of vehicle (NaCl 0.9%), Dex, CpdX, CpdX(eA), CpdX(eB), CpdX-D3, CpdX-D3(eA) or CpdX-D3(eB) (1 mg/kg body weight, diluted in vehicle).
Following this long-term treatment, blood was collected at 10 a.m. and 6 p.m. by retro-orbital puncture in lithium-heparin coated vials, and the plasmatic level of corticosterone was determined. Adrenal glands were harvested and weighted. RNA transcripts were extracted and transcripts of the Cyp11a, Cyp11b1, Cyp11b2 and HSD3β genes were analyzed by q-RT-PCR. Histological analyses of the adrenal glands were also carried out.

Series [2] concerns B6 male mice. Kind of series: Blood glucose and intraperitoneal glucose tolerance test after three-month treatment. To be noted: for control of the blood glucose level: three months, conclusion; for blood glucose level in intraperitoneal glucose tolerance test (IPGTT): two-hour period after glucose i.p. injection ([…] body weight). The protocol:
B6 male mice (8-week-old) were daily subjected for three months to a subcutaneous injection of either vehicle (NaCl 0.9%), Dex, CpdX, CpdX(eA), CpdX(eB), CpdX-D3, CpdX-D3(eA) or CpdX-D3(eB) (1 mg/kg body weight, diluted in vehicle). Mice were over-night-fasted. Mouse blood glucose concentration was measured before (T0) and during two hours (T120) after glucose i.p. injection ([…] body weight).

Take `[2H]C([2H])([2H])Oc1ccc(F)cc1C(C)(C)CC(O)(CNc1ccc2c(c1)COC2=O)C(F)(F)F` (centres unmarked) [CpdX-D3(eA), 5-{4-[2-(methoxy-D3)-5-fluorophenyl]-2-hydroxy-4-methyl-2-(trifluoromethyl)pentylamino}isobenzofuran-1(3H)-one]: in the series with mice, the “total number of BAL cells, eosinophils and lymphocytes” value is on record as “efficiently decreased”; the “peribronchiolar and perivascular inflammatory cell infiltration” value was “decreased”. In addition, the “expressions of IL-1β, IL-6, IL-4, IL-5, IL-13, Eotaxin and CCL4 (pro-inflammatory genes) in lung samples” value in the series with mice (q-RT-PCR, D32) is recorded as “efficiently decreased”. Also, the “RNA transcripts of the pro-inflammatory genes expressed in the hind paws (IL-1β, IL-6, IL-17a, IL-17f, TNFα)” value with Male mice (DBA-1 strain) was “similarly repressed”. Further, the “clinical signs of allergic conjunctivitis (conjunctival hyperemia, lid edema and tearing)” value with Balb/C mice is reported as “considerably reduced”. In the series on B6 male mice [1], the plasmatic corticosterone level entry is given as “much higher”; the “cortex layers, most notably the fasciculata zone, of the adrenal glands” value is recorded as “markedly increased”; the “glomerulosa zone of the adrenal cortex” value is given as “but not”; the “transcripts of Cyp11a, Cyp11b1 and HSD3β genes in adrenal glands” value was “increased”. In the series with B6 male mice [2], the “control of the blood glucose level” value is recorded as “does not significantly affect” and the “blood glucose level in intraperitoneal glucose tolerance test (IPGTT)” value was “no significant difference”.

With `COc1ccc(F)cc1C(C)(C)CC(O)(CNc1ccc2c(c1)COC2=O)C(F)(F)F` (racemic) [CpdX, 5-[4-(5-fluoro-2-methoxyphenyl)-2-hydroxy-4-methyl-2-(trifluoromethyl)pentylamino]-isobenzofuran-1(3H)-one], the “number of neutrophils and macrophages in BAL” value in the series with mice (0.5 mg/kg on D29-D31, BAL on D32) is on record as “No significant change”. Moreover, in the series on mice, the “total number of BAL cells, eosinophils and lymphocytes” value is “significantly decreased”; the “peribronchiolar and perivascular inflammatory cell infiltration” value is “strongly decreased”. Moreover, the “eosinophils in lung, immunohistochemistry” value in the series with mice (eosinophil-specific antibodies, data not shown) is “decreased”. In the series on mice (neutrophil-specific antibody, data not shown), the “neutrophils in lung, immunohistochemistry” value is “no significant change”. The “expressions of IL-1β, IL-6, IL-4, IL-5, IL-13, Eotaxin and CCL4 (pro-inflammatory genes) in lung samples” value in the series with mice (q-RT-PCR, D32) is “significantly and similarly decreased”. For the same compound, in the series on mice (q-RT-PCR, data not shown), the “expressions of IL-10 and TNFα in lung samples” value is listed as “not affected”. Besides, the “HDM-induced airway hyperresponsiveness (AHR), airway resistance and elastance” value in the series with mice (response to methacholine 50 mg/mL, D32) is “similarly reduced”. The “hind paw thickness at the ankle level” value in the series with Male mice (DBA-1 strain) (i.p. 1 mg/kg daily for 10 days (T0 to T10)) is recorded as “rapid decrease”. For the same compound, in the series with Male mice (DBA-1 strain), the “RNA transcripts of the pro-inflammatory genes expressed in the hind paws (IL-1β, IL-6, IL-17a, IL-17f, TNFα)” value is “similarly repressed”. Besides, the “hind paw thickness, difference compared to the Dex treatment” value with Male mice (DBA-1 strain) (student t test, FIG. 17 legend) is listed as “not significant”. Moreover, the “clinical signs of allergic conjunctivitis (conjunctival hyperemia, lid edema and tearing)” value in the series on Balb/C mice is on record as “considerably reduced”. In the series with B6 male mice [1], the plasmatic corticosterone level result is given as “much higher”; the “cortex layers, most notably the fasciculata zone, of the adrenal glands” value is given as “markedly increased”; the “glomerulosa zone of the adrenal cortex” value is listed as “but not”; the “transcripts of Cyp11a, Cyp11b1 and HSD3β genes in adrenal glands” value was “increased”. Also, in the series with B6 male mice [2], the “control of the blood glucose level” value is reported as “does not significantly affect” and the “blood glucose level in intraperitoneal glucose tolerance test (IPGTT)” value is recorded as “no significant difference”.
